ChEMBL document CHEMBL1201862, “PubChem BioAssay data set” (2004)
Active and inactive are the calls of the source.

Tests used:
[1] = system: INS1; experiment: beta cell apoptosis inhibitors, cytokine rescue, dose response, luminescence, retest (AID 449756); format: functional, cell-based; conditions: Rattus norvegicus;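 note: cell death triggered by IL-1 beta plus TNF-alpha plus IFN-gamma mixture; protective hits raise ATP signal compared with cytokine alone wells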
[2] = biological target: Photoreceptor-specific nuclear receptor (Homo sapiens, UniProt Q9Y5X4); format: functional, cell-based;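 note: CHO-S cells with Gal4-NCOR and VP16-NR2E3 two-hybrid luciferase reporter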
[3] = biological target: T1, Aminopeptidase N (Plasmodium falciparum FcB1/Columbia, UniProt O96935); experiment: P. falciparum M1AAP inhibitors, biochemical, fluorogenic H-Leu-NHMec substrate, 1536-well (AID 1445); set-up: species or system Plasmodium falciparum 3D7, 3D7
T1 sequence (O96935 whole entry): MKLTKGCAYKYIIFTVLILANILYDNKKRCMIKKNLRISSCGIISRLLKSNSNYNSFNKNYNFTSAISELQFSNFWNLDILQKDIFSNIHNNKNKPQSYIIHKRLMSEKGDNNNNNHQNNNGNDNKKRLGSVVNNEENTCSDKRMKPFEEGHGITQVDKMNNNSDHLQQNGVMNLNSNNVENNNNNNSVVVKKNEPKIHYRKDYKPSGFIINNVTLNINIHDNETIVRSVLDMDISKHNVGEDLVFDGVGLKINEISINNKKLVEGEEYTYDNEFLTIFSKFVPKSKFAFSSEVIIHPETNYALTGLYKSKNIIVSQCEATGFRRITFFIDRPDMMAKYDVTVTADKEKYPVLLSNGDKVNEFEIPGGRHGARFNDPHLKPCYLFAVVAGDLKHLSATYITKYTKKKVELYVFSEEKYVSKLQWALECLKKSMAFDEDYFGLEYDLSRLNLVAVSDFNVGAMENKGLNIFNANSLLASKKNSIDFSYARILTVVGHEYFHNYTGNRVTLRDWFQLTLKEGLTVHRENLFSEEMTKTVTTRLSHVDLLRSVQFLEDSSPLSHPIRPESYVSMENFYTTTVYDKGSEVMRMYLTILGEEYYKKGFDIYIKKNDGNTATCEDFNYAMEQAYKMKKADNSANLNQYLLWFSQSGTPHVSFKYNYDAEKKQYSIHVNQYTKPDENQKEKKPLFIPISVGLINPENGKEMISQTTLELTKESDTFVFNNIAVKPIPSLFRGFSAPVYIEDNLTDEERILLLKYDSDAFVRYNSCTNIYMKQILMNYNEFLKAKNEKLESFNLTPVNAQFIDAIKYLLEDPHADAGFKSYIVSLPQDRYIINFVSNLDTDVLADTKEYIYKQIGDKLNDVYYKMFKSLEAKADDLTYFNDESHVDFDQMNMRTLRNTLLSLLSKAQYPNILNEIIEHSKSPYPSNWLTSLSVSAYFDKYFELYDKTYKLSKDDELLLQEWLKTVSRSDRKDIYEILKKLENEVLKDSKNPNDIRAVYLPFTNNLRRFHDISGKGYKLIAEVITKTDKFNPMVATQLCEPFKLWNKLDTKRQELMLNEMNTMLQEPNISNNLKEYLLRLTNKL

[4] = biological target: Genome polyprotein (dengue virus type 2, UniProt P29990); experiment: Dengue-2 NS5 methyltransferase inhibitors, primary screen, biochemical, confirmation dose response (AID 588689); format: functional
[5] = biological target: T2, Corticotropin-releasing factor receptor 2/Corticotropin-releasing factor-binding protein (Homo sapiens, UniProt P24387+Q13324); experiment: Dose Response confirmation of uHTS hits for small molecule antagonists of the CRF-binding protein and CRF-R2 receptor complex.; format: functional; conditions: read-out: IC50_Mean
T2 sequence (Q13324 whole entry): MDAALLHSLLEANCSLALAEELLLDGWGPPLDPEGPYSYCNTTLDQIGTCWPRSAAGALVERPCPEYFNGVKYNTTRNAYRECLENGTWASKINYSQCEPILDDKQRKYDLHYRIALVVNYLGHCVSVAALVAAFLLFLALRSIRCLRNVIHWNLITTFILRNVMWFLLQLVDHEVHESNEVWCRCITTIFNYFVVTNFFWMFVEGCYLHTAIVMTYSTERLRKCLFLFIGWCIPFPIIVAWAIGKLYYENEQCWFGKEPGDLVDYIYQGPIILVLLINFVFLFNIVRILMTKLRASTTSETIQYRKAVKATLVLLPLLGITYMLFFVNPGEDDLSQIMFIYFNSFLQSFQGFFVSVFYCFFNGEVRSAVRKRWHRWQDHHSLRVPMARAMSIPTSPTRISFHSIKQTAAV
T2 sequence (P24387 whole entry): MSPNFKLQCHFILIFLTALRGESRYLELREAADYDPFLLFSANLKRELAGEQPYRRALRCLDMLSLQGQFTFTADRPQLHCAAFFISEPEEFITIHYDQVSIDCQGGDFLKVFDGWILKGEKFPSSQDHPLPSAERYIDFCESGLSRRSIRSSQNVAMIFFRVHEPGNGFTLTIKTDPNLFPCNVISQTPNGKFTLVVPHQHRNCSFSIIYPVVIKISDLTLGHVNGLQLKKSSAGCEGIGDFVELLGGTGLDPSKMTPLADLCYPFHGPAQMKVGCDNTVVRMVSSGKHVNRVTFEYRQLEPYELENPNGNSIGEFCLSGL

[6] = biological target: T2, Corticotropin-releasing factor receptor 2/Corticotropin-releasing factor-binding protein; experiment: activators of CRF receptor 2 with binding protein – uHTS hits, confirmation (AID 602473); format: functional; conditions: read-out: EC50_Mean
[7] = CRF-BP/CRF-R2 complex antagonists, dose response, cell-based, uHTS hits, 384-well (AID 651639); format: functional, Homo sapiens; conditions: read-out: IC50_Mean
[8] = miR-122 activators in hepatoma reporter cells, dose response, cell-based, Huh7 psiCHECK-miR122, Renilla luciferase, cherry-picked (AID 651956); format: functional;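 note: huh7 hepatoma cells stably carrying a psiCHECK-2 miR-122 sensor plasmid; renilla luciferase signal reporting endogenous miR-122 activity after 48 h compound exposure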
[9] = biological target: T3, DNA repair and recombination protein RAD54-like (Homo sapiens, UniProt Q92698); experiment: inhibitors of human RAD54 branch migration, confirmation, biochemical, fluorescence, cherry-picked samples, dose series (AID 651657); format: functional
T3 sequence (Q92698 whole entry): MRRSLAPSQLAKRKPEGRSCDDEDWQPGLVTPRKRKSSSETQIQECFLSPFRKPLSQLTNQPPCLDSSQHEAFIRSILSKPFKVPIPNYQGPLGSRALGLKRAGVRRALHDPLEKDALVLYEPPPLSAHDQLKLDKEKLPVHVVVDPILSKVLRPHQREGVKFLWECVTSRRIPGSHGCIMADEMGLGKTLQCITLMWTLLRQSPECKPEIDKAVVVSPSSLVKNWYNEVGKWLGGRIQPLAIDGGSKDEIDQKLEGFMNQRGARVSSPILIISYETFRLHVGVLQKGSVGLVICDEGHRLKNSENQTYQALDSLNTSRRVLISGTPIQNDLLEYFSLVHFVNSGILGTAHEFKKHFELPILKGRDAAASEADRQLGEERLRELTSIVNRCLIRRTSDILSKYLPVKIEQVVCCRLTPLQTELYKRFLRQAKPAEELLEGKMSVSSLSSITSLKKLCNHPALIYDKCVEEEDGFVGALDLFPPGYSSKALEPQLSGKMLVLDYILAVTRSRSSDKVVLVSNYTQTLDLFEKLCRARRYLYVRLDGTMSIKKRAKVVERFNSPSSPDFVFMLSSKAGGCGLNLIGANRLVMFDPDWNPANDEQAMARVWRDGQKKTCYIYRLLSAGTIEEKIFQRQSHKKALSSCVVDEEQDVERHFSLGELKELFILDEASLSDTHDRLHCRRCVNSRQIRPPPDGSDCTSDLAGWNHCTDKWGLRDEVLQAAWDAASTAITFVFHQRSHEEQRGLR

[10] = biological target: T4, DNA repair protein RAD52 homolog (Homo sapiens, UniProt P43351); format: functional, biochemical
T4 sequence (P43351 whole entry): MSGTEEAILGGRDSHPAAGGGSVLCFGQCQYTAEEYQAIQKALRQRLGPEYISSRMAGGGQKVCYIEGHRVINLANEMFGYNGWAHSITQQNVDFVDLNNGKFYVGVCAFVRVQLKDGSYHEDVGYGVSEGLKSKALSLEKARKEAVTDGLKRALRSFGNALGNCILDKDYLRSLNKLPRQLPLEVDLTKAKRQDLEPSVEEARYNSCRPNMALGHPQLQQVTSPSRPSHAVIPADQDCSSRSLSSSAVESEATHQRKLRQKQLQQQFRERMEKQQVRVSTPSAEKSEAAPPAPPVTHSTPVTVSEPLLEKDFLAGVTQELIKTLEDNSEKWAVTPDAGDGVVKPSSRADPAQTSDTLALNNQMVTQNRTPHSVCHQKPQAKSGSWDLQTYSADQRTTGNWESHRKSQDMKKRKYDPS

[11] = inhibitors of intracellular T. cruzi replication, confirmation, NIH3T3 host cells, beta-gal luminescence (AID 2044); format: functional, cell-based;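 note: intracellular parasites grown in NIH/3T3 mouse fibroblasts as host cells; luminescent beta-galactosidase reporter signal from transgenic T. cruzi replicating inside host cells; inhibitors lower the luminescence signal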
[12] = cytotoxicity toward NIH3T3 fibroblasts, dose response, counter-screen, cell-based, ATP luminescence, mouse fibroblasts (AID 2010); format: functional; conditions: NIH3T3;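 note: cells exposed to compound for about 90 hours before reading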

Sequence of Photoreceptor-specific nuclear receptor (Q9Y5X4 whole entry, the tested form may be a part): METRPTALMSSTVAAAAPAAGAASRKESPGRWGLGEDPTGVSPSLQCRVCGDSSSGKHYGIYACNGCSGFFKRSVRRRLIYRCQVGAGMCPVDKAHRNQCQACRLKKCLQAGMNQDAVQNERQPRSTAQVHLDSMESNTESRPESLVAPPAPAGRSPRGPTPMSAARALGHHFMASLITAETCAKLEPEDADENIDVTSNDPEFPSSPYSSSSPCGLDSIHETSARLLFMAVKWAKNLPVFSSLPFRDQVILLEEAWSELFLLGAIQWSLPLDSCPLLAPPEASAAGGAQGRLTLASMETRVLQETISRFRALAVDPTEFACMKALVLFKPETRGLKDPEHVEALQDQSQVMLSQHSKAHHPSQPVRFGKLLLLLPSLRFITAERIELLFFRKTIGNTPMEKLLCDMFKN
Sequence of Genome polyprotein (P29990 2492-3391 limits assumed): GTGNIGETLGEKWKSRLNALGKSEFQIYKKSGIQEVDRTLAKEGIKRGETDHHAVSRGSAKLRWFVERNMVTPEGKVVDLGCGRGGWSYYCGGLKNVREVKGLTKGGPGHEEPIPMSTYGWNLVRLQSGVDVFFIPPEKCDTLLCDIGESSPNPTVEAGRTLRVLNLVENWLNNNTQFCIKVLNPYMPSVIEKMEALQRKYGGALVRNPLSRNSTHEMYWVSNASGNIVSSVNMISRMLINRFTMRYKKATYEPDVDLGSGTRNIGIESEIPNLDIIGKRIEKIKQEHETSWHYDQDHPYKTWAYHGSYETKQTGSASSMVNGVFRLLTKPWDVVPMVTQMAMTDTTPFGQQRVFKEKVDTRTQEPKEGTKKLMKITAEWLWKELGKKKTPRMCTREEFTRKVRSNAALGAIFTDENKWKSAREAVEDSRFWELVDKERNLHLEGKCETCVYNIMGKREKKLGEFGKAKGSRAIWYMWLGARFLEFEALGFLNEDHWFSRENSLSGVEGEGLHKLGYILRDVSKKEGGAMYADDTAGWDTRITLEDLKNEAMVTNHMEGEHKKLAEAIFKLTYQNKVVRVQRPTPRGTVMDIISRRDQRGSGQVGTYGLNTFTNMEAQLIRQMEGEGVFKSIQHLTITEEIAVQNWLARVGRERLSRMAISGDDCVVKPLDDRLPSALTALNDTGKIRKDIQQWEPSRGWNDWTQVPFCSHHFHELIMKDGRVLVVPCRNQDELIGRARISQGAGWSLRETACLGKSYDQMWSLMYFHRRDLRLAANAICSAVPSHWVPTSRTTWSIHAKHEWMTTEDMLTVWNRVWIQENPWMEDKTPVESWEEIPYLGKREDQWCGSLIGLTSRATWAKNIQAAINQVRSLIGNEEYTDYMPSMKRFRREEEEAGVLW

Structure (SMILES) | IC50 [5] | EC50 [6] | IC50 [7] | further results
CC(Oc1ccc(Br)cc1)c1nc2c3ccccc3nc(S)n2n1 (stereo not drawn) | – | – | – | AC50 [1]: 7.23 µM (active); IC50 [2]: 3.74 µM (active)
O=C(C1CCC(CNS(=O)(=O)c2cccc3nsnc23)CC1)N1CC=C(c2ccccc2)CC1 (stereo not drawn) | – | – | – | IC50 [2]: 3.8 µM (active)
CCOc1ccc(/C=C2\SC(=S)N(NS(=O)(=O)c3ccc(C)cc3)C2=O)cc1OC | 6.18 µM (active) | > 53 µM (inactive) | > 20 µM (inactive) | IC50 [3]: 34.2 µM (active); IC50 [4]: 58.3 µM (active)
COc1ccc(N2CCN(C(=O)CSc3nnc(CNc4ccccc4)o3)CC2)cc1 | – | – | – | AC50 [8]: 44.3 µM (active)
Cc1nn(C)cc1NC(=O)C[C@@H]1CC[C@@H]2[C@@H](COc3ccc(NC(=O)Nc4cccc(Cl)c4)cc3C(=O)N2C)O1 | – | – | – | AC50 [8]: 22.8 µM (active)
Cc1ccccc1NC(=O)Cc1nc(COC(=O)c2cc([N+](=O)[O-])ccc2NCCO)cs1 | 23.2 µM (active) | > 53 µM (inactive) | 13.8 µM (active) | –
CN(C)CCNC(=O)c1cccc(-c2cnc3c(NC=O)cc(-c4ccc(F)cc4)cn23)c1 | – | – | – | AC50 [9]: 17.7 µM (active); AC50 [10]: 3.96 µM (active)
Cc1ccc(S(=O)(=O)c2nnn3c2nc(N2CCCCC2)c2ccccc23)cc1 | 2.96 µM (active) | > 53 µM (inactive) | 10 µM (active) | EC50 [11]: 1.14 µM (active); EC50 [12]: > 60 µM (inconclusive)
COc1ccc(C(C(=O)NC2CCCC2)N(C(=O)c2ccoc2C)c2cc(C)cc(C)c2)cc1 (stereo not drawn) | 5.69 µM (active) | > 53 µM (inactive) | > 20 µM (inactive) | –
